Laboratory results published in PubChem BioAssay AID248 (DTP/NCI, 2004).
Several values for one entry are separate records, joined by “and”; a condition that tells them apart may be missing. Identical values can stand only once. Toxic doses and inconclusive results are not listed. Cut-off read from the data, not from the text of the source: active = T/C of 150% or more; inactive = T/C below 125%.

System: L1210 leukemia ip in BDF1 mice, survival T/C
Test: NCI In Vivo Anticancer Drug Screen. Data for tumor model L1210 Leukemia (intraperitoneal) in B6D2F1 (BDF1) mice
Details: endpoint: mean survival time, higher = longer survival
Procedure, shortened: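 Mice bearing the transplanted tumor received compound or vehicle. Survival of the treated group was divided by that of the vehicle-treated control group to give the ratio.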

[1] = dose: 100.0 mg/kg/injection, schedule: Q04DX003 (ip), vehicle: saline with Tween-80
[2] = dose: 200.0 mg/kg/injection, schedule: Q04DX003 (ip), vehicle: saline with Tween-80
[3] = dose: 100.0 mg/kg/injection, schedule: Q01DX009 (ip), vehicle: Klucel (hydroxypropylcellulose) (HPC)
[4] = dose: 200.0 mg/kg/injection, schedule: Q01DX009 (ip), vehicle: Klucel (hydroxypropylcellulose) (HPC)
[5] = dose: 400.0 mg/kg/injection, schedule: Q01DX009 (ip), vehicle: Klucel (hydroxypropylcellulose) (HPC)
[6] = dose: 100.0 mg/kg/injection, schedule: Q01DX001 (ip), vehicle: saline
[7] = dose: 200.0 mg/kg/injection, schedule: Q01DX001 (ip), vehicle: saline
[8] = dose: 400.0 mg/kg/injection, schedule: Q01DX001 (ip), vehicle: saline
[9] = dose: 100.0 mg/kg/injection, schedule: Q04DX003 (ip), vehicle: saline
[10] = dose: 200.0 mg/kg/injection, schedule: Q04DX003 (ip), vehicle: saline
[11] = dose: 50.0 mg/kg/injection, schedule: Q01DX001 (ip), vehicle: saline
[12] = dose: 100.0 mg/kg/injection, schedule: Q04DX002 (ip), vehicle: saline with Tween-80
[13] = dose: 200.0 mg/kg/injection, schedule: Q04DX002 (ip), vehicle: saline with Tween-80
[14] = dose: 400.0 mg/kg/injection, schedule: Q04DX002 (ip), vehicle: saline with Tween-80
[15] = dose: 100.0 mg/kg/injection, schedule: Q04DX003 (ip), vehicle: Klucel (hydroxypropylcellulose) (HPC)
[16] = dose: 200.0 mg/kg/injection, schedule: Q04DX003 (ip), vehicle: Klucel (hydroxypropylcellulose) (HPC)
[17] = dose: 400.0 mg/kg/injection, schedule: Q04DX003 (ip), vehicle: Klucel (hydroxypropylcellulose) (HPC)
[18] = dose: 50.0 mg/kg/injection, schedule: Q01DX009 (ip), vehicle: saline
[19] = dose: 100.0 mg/kg/injection, schedule: Q01DX009 (ip), vehicle: saline
[20] = dose: 200.0 mg/kg/injection, schedule: Q01DX009 (ip), vehicle: saline
[21] = dose: 400.0 mg/kg/injection, schedule: Q04DX003 (ip), vehicle: saline
[22] = dose: 50.0 mg/kg/injection, schedule: Q01DX009 (ip), vehicle: Klucel (hydroxypropylcellulose) (HPC)

Measured: T/C

O=C1C(Cl)=C(Cl)C(=O)N1c1ccc(Cl)c(Cl)c1
inactive: dose: 100.0 mg/kg/injection, schedule: Q01DX009 (ip), vehicle: saline with Tween-80 98 % of control | [1] 91 % of control | dose: 200.0 mg/kg/injection, schedule: Q01DX009 (ip), vehicle: saline with Tween-80 101 % of control | [2] 87 % of control | dose: 400.0 mg/kg/injection, schedule: Q04DX003 (ip), vehicle: saline with Tween-80 94 % of control

O=C(O)c1c(Br)c(Br)c(Br)c(Br)c1C(=O)O
inactive: dose: 100.0 mg/kg/injection, schedule: Q04DX002 (ip), vehicle: saline 107 % of control | dose: 200.0 mg/kg/injection, schedule: Q04DX002 (ip), vehicle: saline 110 % of control | dose: 400.0 mg/kg/injection, schedule: Q04DX002 (ip), vehicle: saline 103 % of control

CC(=O)c1cccc(NC(=O)Nc2cccc(O)c2)c1
inactive: [3] 101 % of control | [4] 97 % of control | [5] 101 % of control

NNP(=O)(c1ccccc1)c1ccccc1
inactive: [6] 108 % of control | [7] 102 % of control | [8] 102 % of control

CNC(=O)n1cncn1
inactive: [6] 95 % of control | [9] 101 % of control | [7] 93 % of control | [10] 95 % of control | [8] 95 % of control

CN(C)c1ncnc2c1ncn2C1OC(CO)C2NP(=O)(N(CCCl)CCCl)OC21 (centres undefined)
inactive: dose: 75.0 mg/kg/injection, schedule: Q01DX001 (ip), vehicle: saline 103 % of control | dose: 150.0 mg/kg/injection, schedule: Q01DX001 (ip), vehicle: saline 119 % of control

CCC[CH2][Pb]([CH2]CCC)([CH2]CCC)[n]1ccnc1
inactive: dose: 1.5 mg/kg/injection, schedule: Q01DX009 (ip), vehicle: Klucel (hydroxypropylcellulose) (HPC) 95 % of control | dose: 3.0 mg/kg/injection, schedule: Q01DX009 (ip), vehicle: Klucel (hydroxypropylcellulose) (HPC) 96 % of control | dose: 6.0 mg/kg/injection, schedule: Q01DX009 (ip), vehicle: Klucel (hydroxypropylcellulose) (HPC) 90 % of control | dose: 12.5 mg/kg/injection, schedule: Q04DX003 (ip), vehicle: Klucel (hydroxypropylcellulose) (HPC) 97 % of control | dose: 25.0 mg/kg/injection, schedule: Q04DX003 (ip), vehicle: Klucel (hydroxypropylcellulose) (HPC) 97 % of control | [11] 98 % of control | dose: 50.0 mg/kg/injection, schedule: Q04DX003 (ip), vehicle: Klucel (hydroxypropylcellulose) (HPC) 86 % of control | [6] 95 % of control | [7] 93 % of control

CC(C)n1cc(C(=O)c2ccccc2)cc1-c1ccccc1
inactive: [12] 93 % of control | [13] 89 % of control | [14] 97 % of control

O=[N+]([O-])c1ccc(Cl)c2ncccc12
inactive: [15] 102 % of control | [16] 98 % of control | [17] 102 % of control

C/C=C/C(=O)OC1CC2OC3C=C(C)C4OC4C3(C)C1(C)C21CO1 (centres undefined)
inactive: [18] 96 % of control | [19] 96 % of control | [9] 90 % of control | [20] 108 % of control | [10] 92 % of control | [21] 88 % of control

CC1CC(CN2c3ccccc3Sc3ccccc32)C(C)N1C (centres undefined)
inactive: dose: 12.5 mg/kg/injection, schedule: Q04DX003 (ip), vehicle: acetone 101 % of control | dose: 25.0 mg/kg/injection, schedule: Q04DX003 (ip), vehicle: acetone 120 % of control

O=S(=O)(O)OCc1cc(O)c(OS(=O)(=O)O)c(Br)c1Br
inactive: dose: 100.0 mg/kg/injection, schedule: Q01DX001 (ip), vehicle: saline with Tween-80 97 % of control | dose: 200.0 mg/kg/injection, schedule: Q01DX001 (ip), vehicle: saline with Tween-80 102 % of control | dose: 400.0 mg/kg/injection, schedule: Q01DX001 (ip), vehicle: saline with Tween-80 94 % of control

COc1ccc(/C=N/NC(=S)Nc2cccc3cccnc23)cc1OC
inactive: [6] 100 % of control | [7] 94 % of control | [8] 86 % of control

Cc1ccccc1C=O
inactive: [11] 97 % of control | [6] 94 % of control | [7] 94 % of control | [8] 94 % of control

CN1CCN(C(=O)C2C(c3ccccc3)C2c2ccc(Cl)c(Cl)c2)CC1 (centres undefined)
inactive: dose: 12.5 mg/kg/injection, schedule: Q04DX002 (ip), vehicle: saline with Tween-80 95 % of control and 98 % of control | dose: 25.0 mg/kg/injection, schedule: Q04DX002 (ip), vehicle: saline with Tween-80 103 % of control | dose: 50.0 mg/kg/injection, schedule: Q04DX002 (ip), vehicle: saline with Tween-80 92 % of control and 88 % of control

O=C(Cc1cccc2ccccc12)OCCOCCCl
inactive: [12] 101 % of control | [13] 104 % of control | [14] 117 % of control

O=C(O)CCc1c2ccc(=O)c(O)c-2oc2c(O)c(O)ccc12
inactive: [9] 106 % of control | [10] 105 % of control | [21] 100 % of control

Cc1cnc(Cl)[nH]1 (tested in a mixture with another compound)
inactive: [12] 100 % of control | [13] 113 % of control | [14] 113 % of control

N/C(=N\O)c1ncn(C2OC(CO)C(O)C2O)c1N (centres undefined)
inactive: dose: 100.0 mg/kg/injection, schedule: Q01DX005 (ip), vehicle: saline 103 % of control | dose: 200.0 mg/kg/injection, schedule: Q01DX005 (ip), vehicle: saline 108 % of control

CN(C)C(=O)C1C2C=CC(CC2)C1C(=O)N(C)C (centres undefined)
inactive: [9] 96 % of control | [10] 96 % of control | [21] 96 % of control

Cc1cc(=O)oc2ccc(OS(C)(=O)=O)cc12
inactive: [22] 90 % of control | [3] 101 % of control | [4] 90 % of control

Cc1c(O)ccc(C(=O)CCl)c1O
inactive: dose: 12.0 mg/kg/injection, schedule: Q01DX009 (ip), vehicle: saline with Tween-80 100 % of control | dose: 25.0 mg/kg/injection, schedule: Q01DX009 (ip), vehicle: saline with Tween-80 102 % of control and 107 % of control | [15] 106 % of control | [16] 102 % of control

O=C(O)C(Cc1ccc(O)cc1)NC(=O)C(CSC(c1ccccc1)(c1ccccc1)c1ccccc1)NC(c1ccccc1)(c1ccccc1)c1ccccc1 (centres undefined)
inactive: [18] 92 % of control | [19] 95 % of control | [20] 100 % of control | dose: 400.0 mg/kg/injection, schedule: Q01DX009 (ip), vehicle: saline 95 % of control

CCCCCCCCCCCCCC[n+]1cccc(C#N)c1
inactive: dose: 10.0 mg/kg/injection, schedule: Q01DX001 (ip), vehicle: saline 100 % of control | dose: 10.0 mg/kg/injection, schedule: Q04DX003 (ip), vehicle: saline 93 % of control | dose: 20.0 mg/kg/injection, schedule: Q01DX001 (ip), vehicle: saline 100 % of control | dose: 20.0 mg/kg/injection, schedule: Q04DX003 (ip), vehicle: saline 93 % of control | dose: 40.0 mg/kg/injection, schedule: Q01DX001 (ip), vehicle: saline 97 % of control | dose: 40.0 mg/kg/injection, schedule: Q04DX003 (ip), vehicle: saline 86 % of control

CC1=CCCC(C)(C)C1C=C1C(=O)NC(=S)NC1=O (centres undefined)
inactive: [22] 92 % of control | [3] 98 % of control | [4] 109 % of control

C(#Cc1ccccc1)COCC1CO1 (centres undefined)
inactive: dose: 50.0 mg/kg/injection, schedule: Q04DX003 (ip), vehicle: saline with Tween-80 95 % of control | [1] 98 % of control | [2] 91 % of control

CCN(CC)Cc1cc(Cl)cc(Cc2cc(Cl)cc(CN(CC)CC)c2O)c1O
inactive: dose: 200.0 mg/kg/injection, schedule: Q04DX003 (ip), vehicle: acetone 109 % of control | dose: 400.0 mg/kg/injection, schedule: Q04DX003 (ip), vehicle: acetone 98 % of control

CSc1nc(C(=O)O)c(C)c(=O)[nH]1
inactive: dose: 100.0 mg/kg/injection, schedule: Q01DX Z (ip), vehicle: saline 109 % of control | dose: 200.0 mg/kg/injection, schedule: Q01DX Z (ip), vehicle: saline 100 % of control

O=C(Nc1ccccc1)Oc1ccc(Cl)cc1
inactive: [3] 97 % of control | [15] 107 % of control | [4] 102 % of control | [16] 96 % of control | [5] 103 % of control | [17] 113 % of control
